ChEMBL document CHEMBL5104192, “Late-Stage Functionalization with Cysteine Staples Generates Potent and Selective Melanocortin Receptor-1 Agonists” (J Med Chem, 2022)
*1 amine or outer side, *2 acyl side, *3 side chain or, on linkers, in order; H or OH if unused. Where a SMILES comes first, the peptide text is derived from it. Bridges are numbered along the chain shown (N, C = ends). [ ]: non-standard residue; d: D form. X6 = O=C(NCCOCCOCCNC(=O)c1ccc2c(c1)C(=O)OC21c2ccc(O)cc2Oc2cc(O)ccc21)OCC1C2CCc3c([*:1])nnc([*:2])c3CCC21; X3 = NC(=O)/C(=C(\C(=O)O)[*:2])[*:1]; mXylylene = c1cc(C[*:1])cc(C[*:2])c1; NMeR = CN[C@@H](CCCNC(=N)N)C(=O)O; CH2COCH2 = O=C(C[*:1])C[*:2]; X1 = n1nc([*:2])nnc1[*:1]; Nle = CCCC[C@H](N)C(=O)O; X7 = C(C[*:1])C[*:2]

Experiments:
[1] = target: T1, Melanocortin receptor 4 (Homo sapiens, UniProt P32245); test: Agonist activity at human MC4R expressed in HEK2936E cells assessed as cAMP production in presence of IBMX by time resolved fluorescence assay; type: functional, cell-based
T1 sequence (P32245 whole entry): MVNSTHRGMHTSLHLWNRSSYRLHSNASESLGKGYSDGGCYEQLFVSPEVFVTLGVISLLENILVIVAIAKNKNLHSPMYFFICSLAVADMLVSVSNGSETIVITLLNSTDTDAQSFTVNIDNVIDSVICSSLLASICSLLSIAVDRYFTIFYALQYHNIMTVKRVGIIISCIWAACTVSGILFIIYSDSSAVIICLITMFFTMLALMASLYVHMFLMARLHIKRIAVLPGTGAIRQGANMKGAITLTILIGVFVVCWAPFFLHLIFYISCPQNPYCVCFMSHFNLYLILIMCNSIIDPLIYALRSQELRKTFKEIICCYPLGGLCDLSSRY

[2] = target: T2, Melanocortin receptor 3 (Homo sapiens, UniProt P41968); test: Agonist activity at human MC3R expressed in HEK2936E cells assessed as cAMP production in presence of IBMX by time resolved fluorescence assay; type: functional, cell-based
T2 sequence (P41968 whole entry): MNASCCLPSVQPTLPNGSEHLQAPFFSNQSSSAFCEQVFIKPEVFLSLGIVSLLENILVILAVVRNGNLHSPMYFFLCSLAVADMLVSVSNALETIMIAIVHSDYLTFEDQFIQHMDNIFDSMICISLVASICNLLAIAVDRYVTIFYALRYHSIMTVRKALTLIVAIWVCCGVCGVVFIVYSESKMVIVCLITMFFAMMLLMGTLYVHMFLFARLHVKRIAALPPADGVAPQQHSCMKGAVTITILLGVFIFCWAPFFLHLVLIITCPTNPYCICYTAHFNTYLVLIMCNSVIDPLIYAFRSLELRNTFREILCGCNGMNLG

[3] = species on record: Homo sapiens; test: Selectivity ratio of EC50 for human MC3R to EC50 for human MC1R
[4] = species on record: Homo sapiens; test: Selectivity ratio of Ki for human MC4R to Ki for human MC1R
[5] = target: T3, Melanocyte-stimulating hormone receptor (Homo sapiens, UniProt Q01726); test: Displacement of [125I]-NDP-alpha-MSH from human MC1R expressed in HEK2936E cell membrane measured after 16 to 23 hrs by 1450 microbeta trilux scintillation proximity assay; type: cell membranes
T3 sequence (Q01726 whole entry): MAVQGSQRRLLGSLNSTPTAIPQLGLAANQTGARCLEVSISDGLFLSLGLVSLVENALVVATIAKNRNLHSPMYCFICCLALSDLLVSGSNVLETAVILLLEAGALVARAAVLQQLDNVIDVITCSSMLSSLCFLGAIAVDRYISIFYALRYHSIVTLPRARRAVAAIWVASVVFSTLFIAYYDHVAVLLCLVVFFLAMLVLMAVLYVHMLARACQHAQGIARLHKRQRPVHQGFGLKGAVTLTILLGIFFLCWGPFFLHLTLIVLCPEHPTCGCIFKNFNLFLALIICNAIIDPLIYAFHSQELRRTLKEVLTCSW

[6] = species on record: Homo sapiens; test: Selectivity ratio of Ki for human MC3R to Ki for human MC1R
[7] = target: T2, Melanocortin receptor 3; test: Displacement of [125I]-NDP-alpha-MSH from human MC3R expressed in HEK2936E cell membrane measured after 16 to 23 hrs by 1450 microbeta trilux scintillation proximity assay; type: cell membranes
[8] = target: T3, Melanocyte-stimulating hormone receptor; test: Agonist activity at human MC1R expressed in HEK2936E cells assessed as cAMP production in presence of IBMX by time resolved fluorescence assay; type: functional, cell-based
[9] = target: T1, Melanocortin receptor 4; test: Displacement of [125I]-NDP-alpha-MSH from human MC4R expressed in HEK2936E cell membrane measured after 16 to 23 hrs by 1450 microbeta trilux scintillation proximity assay; type: cell membranes
[10] = species on record: Homo sapiens; test: Selectivity ratio of EC50 for human MC4R to EC50 for human MC1R

Row | SMILES | EC50 [1] [nM] | EC50 [2] [nM] | Ratio EC50 [3] | Ratio Ki [4] | Ki [5] [nM] | Ratio Ki [6] | Ki [7] [nM] | EC50 ([8]; read-out: pEC50 (converted)) [nM] | Ki [9] [nM] | Ratio EC50 [10] | EC50 ([8]; read-out: EC50) [nM]
1 | CCCC[C@@H]1NC(=O)[C@@H]2CSCCCSC[C@H](NC(=O)[C@H](CCCNC(=N)N)NC(=O)[C@H](CC(=O)O)NC(=O)[C@H](Cc3c[nH]c4ccccc34)NC(=O)[C@H](CCCNC(=N)N)NC(=O)[C@H](Cc3ccccc3)NC(=O)[C@H](Cc3cnc[nH]3)NC(=O)CNC1=O)C(=O)N[C@@H](Cc1cnc[nH]1)C(=O)N[C@@H](Cc1ccccc1)C(=O)N[C@@H](CCCNC(=N)N)C(=O)N[C@@H](Cc1c[nH]c3ccccc13)C(=O)N[C@@H](CCCNC(=N)N)C(=O)N2 (cyclo(CHFRWRC[Nle]GHFRWDR); linker 1-7 via X7) | 2.88 | 0.302 | 2 | 34 | 1.32 | 15 | 19.5 | 0.141 | 44.7 | 20 | –
2 | CCCC[C@@H]1NC(=O)[C@@H]2CSc3nnc(nn3)SC[C@H](NC(=O)[C@H](CCCNC(=N)N)NC(=O)[C@H](CC(=O)O)NC(=O)[C@H](Cc3c[nH]c4ccccc34)NC(=O)[C@H](CCCNC(=N)N)NC(=O)[C@H](Cc3ccccc3)NC(=O)[C@H](Cc3cnc[nH]3)NC(=O)CNC1=O)C(=O)N[C@@H](Cc1cnc[nH]1)C(=O)N[C@@H](Cc1ccccc1)C(=O)N[C@@H](CCCNC(=N)N)C(=O)N[C@@H](Cc1c[nH]c3ccccc13)C(=O)N[C@@H](CCCNC(=N)N)C(=O)N2 (cyclo(CHFRWRC[Nle]GHFRWDR); linker 1-7 via X1) | 1.78 | 0.182 | 4 | 47 | 0.724 | 15 | 11 | 0.0447 | 33.9 | 40 | 0.004
3 | CCCC[C@@H]1NC(=O)[C@@H]2CSC/C(=N/OCC(=O)NCCOCCOCCOCCN=[N+]=[N-])CSC[C@H](NC(=O)[C@H](CCCNC(=N)N)NC(=O)[C@H](CC(=O)O)NC(=O)[C@H](Cc3c[nH]c4ccccc34)NC(=O)[C@H](CCCNC(=N)N)NC(=O)[C@H](Cc3ccccc3)NC(=O)[C@H](Cc3cnc[nH]3)NC(=O)CNC1=O)C(=O)N[C@@H](Cc1cnc[nH]1)C(=O)N[C@@H](Cc1ccccc1)C(=O)N[C@@H](CCCNC(=N)N)C(=O)N[C@@H](Cc1c[nH]c3ccccc13)C(=O)N[C@@H](CCCNC(=N)N)C(=O)N2 | 3.02 | 0.105 | 2 | 79 | 0.389 | 14 | 5.5 | 0.0468 | 30.9 | 65 | –
4 | CCCC[C@@H]1NC(=O)[C@@H]2CS/C(C(=O)O)=C(/C(N)=O)SC[C@H](NC(=O)[C@H](CCCNC(=N)N)NC(=O)[C@H](CC(=O)O)NC(=O)[C@H](Cc3c[nH]c4ccccc34)NC(=O)[C@H](CCCNC(=N)N)NC(=O)[C@H](Cc3ccccc3)NC(=O)[C@H](Cc3cnc[nH]3)NC(=O)CNC1=O)C(=O)N[C@@H](Cc1cnc[nH]1)C(=O)N[C@@H](Cc1ccccc1)C(=O)N[C@@H](CCCNC(=N)N)C(=O)N[C@@H](Cc1c[nH]c3ccccc13)C(=O)N[C@@H](CCCNC(=N)N)C(=O)N2 (cyclo(CHFRWRC[Nle]GHFRWDR); linker 1-7 via X3) | 11.2 | 2.57 | 5 | 31 | 9.77 | 30 | 295 | 0.479 | 302 | 23 | –
5 | CC[C@H](C)[C@@H]1NC(=O)[C@@H]2CCCN2C(=O)[C@H](Cc2c[nH]c3ccccc23)NC(=O)[C@H](CCCNC(=N)N)N(C)C(=O)[C@H](Cc2ccccc2)NC(=O)[C@H](Cc2cnc[nH]2)NC(=O)[C@H]([C@@H](C)O)NC(=O)[C@@H](NC(C)=O)CSCc2cccc(c2)CSC[C@@H](C(N)=O)NC1=O (Ac-CTHF[NMeR]WPIC-NH2; linker 1-9 via mXylylene) | 302 | 195 | 66 | 12 | 110 | 83 | 9120 | 2.95 | 1290 | 103 | –

Further lines, results first:

Row | EC50 [1] [nM] | EC50 [2] [nM] | Ratio EC50 [3] | Ratio Ki [4] | Ki [5] [nM] | Ratio Ki [6] | Ki [7] [nM] | EC50 ([8]; read-out: pEC50 (converted)) [nM] | Ki [9] [nM] | Ratio EC50 [10] | EC50 ([8]; read-out: EC50) [nM] | SMILES
6 | 7.24 | 0.692 | 1 | 21 | 2.09 | 11 | 23.4 | 0.55 | 43.7 | 13 | – | CCCC[C@@H]1NC(=O)[C@@H]2CSCC(=O)CSC[C@H](NC(=O)[C@H](CCCNC(=N)N)NC(=O)[C@H](CC(=O)O)NC(=O)[C@H](Cc3c[nH]c4ccccc34)NC(=O)[C@H](CCCNC(=N)N)NC(=O)[C@H](Cc3ccccc3)NC(=O)[C@H](Cc3cnc[nH]3)NC(=O)CNC1=O)C(=O)N[C@@H](Cc1cnc[nH]1)C(=O)N[C@@H](Cc1ccccc1)C(=O)N[C@@H](CCCNC(=N)N)C(=O)N[C@@H](Cc1c[nH]c3ccccc13)C(=O)N[C@@H](CCCNC(=N)N)C(=O)N2 (cyclo(CHFRWRC[Nle]GHFRWDR); linker 1-7 via CH2COCH2)
7 | 16.6 | 0.955 | 4 | 93 | 2.82 | 11 | 30.9 | 0.24 | 263 | 69 | < 0.3 | CCCC[C@@H]1NC(=O)[C@@H]2CSc3nnc(c4c3CCC3C(CC4)C3COC(=O)NCCOCCOCCNC(=O)c3ccc4c(c3)C(=O)OC43c4ccc(O)cc4Oc4cc(O)ccc43)SC[C@H](NC(=O)[C@H](CCCNC(=N)N)NC(=O)[C@H](CC(=O)O)NC(=O)[C@H](Cc3c[nH]c4ccccc34)NC(=O)[C@H](CCCNC(=N)N)NC(=O)[C@H](Cc3ccccc3)NC(=O)[C@H](Cc3cnc[nH]3)NC(=O)CNC1=O)C(=O)N[C@@H](Cc1cnc[nH]1)C(=O)N[C@@H](Cc1ccccc1)C(=O)N[C@@H](CCCNC(=N)N)C(=O)N[C@@H](Cc1c[nH]c3ccccc13)C(=O)N[C@@H](CCCNC(=N)N)C(=O)N2 (some centres not stated) (cyclo(CHFRWRC[Nle]GHFRWDR); linker 1-7 via X6)
8 | 8.13 | 0.229 | 1 | 25 | 3.31 | 6 | 20.9 | 0.339 | 81.3 | 35 | – | CCCC[C@@H]1NC(=O)[C@@H]2CSSC[C@H](NC(=O)[C@H](CCCNC(=N)N)NC(=O)[C@H](CC(=O)O)NC(=O)[C@H](Cc3c[nH]c4ccccc34)NC(=O)[C@H](CCCNC(=N)N)NC(=O)[C@H](Cc3ccccc3)NC(=O)[C@H](Cc3cnc[nH]3)NC(=O)CNC1=O)C(=O)N[C@@H](Cc1cnc[nH]1)C(=O)N[C@@H](Cc1ccccc1)C(=O)N[C@@H](CCCNC(=N)N)C(=O)N[C@@H](Cc1c[nH]c3ccccc13)C(=O)N[C@@H](CCCNC(=N)N)C(=O)N2 (cyclo(CHFRWRC[Nle]GHFRWDR); disulfide 1-7)
